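All cell lines were grown in 96-well plates and treated with compound for 48 hours. Abbreviation: GI50, concentration required for 50% inhibition of growth. TGI: total growth inhibition.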

Holding throughout (assay): growth of human tumour cells (NCI), 48 h
Experiment [1] relates to CCRF-CEM leukemia.
Experiment [2] deals with NCI-H522 lung.
Experiment [3] deals with OVCAR-3 ovarian.
Experiment [4] deals with HT29 colon.
The subject of experiment [5] is UACC-62 melanoma.
The subject of experiment [6] is SK-OV-3 ovarian.
In experiment [7] the test system is MCF7 breast.
Experiment [8] has as its system NCI-H23 lung.
Experiment [9] relates to HS 578T breast.
Experiment [10] deals with A549 NSCLC.

Regarding `COCc1c(-c2ccc(NC(=O)Nc3cc(C(F)(F)F)ccc3F)c(F)c2)c2c(N)ncnn2c1CN1CCOCC1`, the GI50 was 1.95 µM in experiment [1]; 1.76 µM in [2]; 3.37 µM in experiment [3]; 1.62 µM in experiment [4]; 1.34 µM in experiment [5]; 1.61 µM in [6]. The GI50 in experiment [7] is 2.2 µM; in [8], 1.61 µM; in experiment [9], 0.138 µM; in experiment [10], 2.53 µM. The TGI is 7.96 µM in experiment [1]; 4.05 µM in experiment [2]; greater than 10 µM in [3]; greater than 10 µM in [4]; greater than 10 µM in experiment [5]; 6.88 µM in experiment [6]. In addition, the TGI in experiment [7] was 8.23 µM; in [8], 5.18 µM; in experiment [9] it was 0.733 µM; in experiment [10], greater than 10 µM.
Consider `Nc1c(F)cc(-c2nc3cc(F)ccc3[se]2)cc1Br`, for which the GI50 was greater than 100 µM in [1]; 10.6 µM in experiment [2]; 0.123 µM in experiment [3]; 0.0651 µM in experiment [4]; 1.06 µM in [5]; 2.31 µM in experiment [6]. Also, the GI50 was 0.0267 µM in [7], 0.0414 µM in experiment [8], 44.7 µM in experiment [9] and 0.137 µM in experiment [10]. The TGI was greater than 100 µM in experiment [1]; greater than 100 µM in experiment [2]; greater than 100 µM in experiment [3]; greater than 100 µM in [5]; 39.3 µM in [6]; greater than 100 µM in experiment [7]. Moreover, the TGI in experiment [8] is 20 µM; in experiment [9] it was greater than 100 µM; in experiment [10] it was greater than 100 µM.
In the case of `CCCCCCCC(=O)[O][Hg][CH2]C1COC([CH2][Hg][O]C(=O)CCCCCCC)CO1` (centres undefined), the GI50 in [1] was 1.91 µM; in experiment [2], 4.8 µM; in [3], 4.22 µM; in experiment [4], 15.6 µM; in experiment [5], 17.5 µM; in [6], 13.2 µM. The GI50 in experiment [7] was 4.32 µM; in experiment [8], 14.2 µM; in experiment [9] it was 16.8 µM; in experiment [10], 20.3 µM. For the same compound, the TGI was greater than 100 µM in experiment [1]; greater than 100 µM in experiment [2]; 14.8 µM in experiment [3]; 34.3 µM in [4]; 45.3 µM in experiment [5]; 27.6 µM in experiment [6]. For the same compound, the TGI in [7] was 18.3 µM; in experiment [8] it was 28.6 µM; in experiment [9] it was 46.3 µM; in experiment [10], 47.2 µM.
`CCC[CH2][Pb]([Cl])([CH2]CCC)[CH2]CCC`: the GI50 in experiment [1] is 0.0553 µM; in experiment [2] it was 0.0321 µM; in [3], 0.0204 µM; in experiment [4], 0.0252 µM; in experiment [5], 0.0459 µM; in experiment [6], 0.12 µM. For the same compound, the GI50 is 0.0161 µM in experiment [7], 0.0298 µM in experiment [8], 0.0317 µM in experiment [9] and 0.0264 µM in experiment [10]. Moreover, the TGI in [1] was determined as 1.15 µM; in [2], 0.104 µM; in [3] it was 0.0499 µM; in experiment [4] it was 0.0645 µM; in experiment [5], 0.112 µM; in experiment [6] it was 0.257 µM. Further, the TGI stood at 0.0361 µM in experiment [7], 0.116 µM in experiment [8], 0.0913 µM in experiment [9] and 0.0936 µM in experiment [10].
In the case of `COC(=O)[C@]12CC[C@@H](C)[C@H](C)[C@@H]1C1=CC[C@@H]3[C@@]4(C)C(C=O)=C[C@@](C)(COC(=O)/C=C/c5ccccc5)[C@@H]4[C@H](O)C[C@@]3(C)[C@]1(C)CC2`, the GI50 in experiment [1] is 2.39 µM; in experiment [2] it was 4.47 µM; in experiment [3] it was 2.35 µM; in experiment [4] it was 3.1 µM; in experiment [5] it was 2.49 µM; in experiment [6], 16.5 µM. Besides, the GI50 in experiment [7] was 2.37 µM; in [8], 2.99 µM; in experiment [9] it was 3.72 µM; in [10], 3.73 µM. Moreover, the TGI was greater than 100 µM in [1]; 17.4 µM in experiment [2]; 5.53 µM in [3]; 10.2 µM in experiment [4]; 8.48 µM in experiment [5]; 97.9 µM in [6]. Moreover, the TGI amounted to 11.3 µM in experiment [7], 15.1 µM in [8], 33.8 µM in experiment [9] and 22 µM in [10].
As for `COc1cc2c(cc1C)NC(=O)/C2=C\c1c[nH]c2ccccc12`, the GI50 in experiment [1] was 10.3 µM; in [2], 12.2 µM; in [3], 15.4 µM; in experiment [4], 5.27 µM; in experiment [5], 13.3 µM; in experiment [6], 17.3 µM. Also, the GI50 in [7] was 12.4 µM; in [8] it was 20.2 µM; in experiment [9], 14.5 µM; in experiment [10], 28.4 µM. Besides, the TGI was greater than 100 µM in [1]; 28.9 µM in experiment [2]; 62.9 µM in experiment [3]; 55.9 µM in experiment [4]; 28.4 µM in [5]; 37.7 µM in [6]. The TGI in [7] was 49.7 µM; in experiment [8] it was 74.6 µM; in experiment [9], 47.9 µM; in [10], greater than 100 µM.
As to `Nc1ncnc2c1ccn2[C@@H]1O[C@H]([C@H](O)c2ccc(Cl)c(F)c2)[C@@H](O)[C@H]1O`, the GI50 is greater than 100 µM in experiment [1]; greater than 100 µM in experiment [2]; greater than 100 µM in experiment [3]; 36 µM in experiment [4]; greater than 100 µM in experiment [5]; greater than 100 µM in [6]. The GI50 was 50.2 µM in experiment [7], greater than 100 µM in experiment [8], greater than 100 µM in experiment [9] and greater than 100 µM in [10]. Also, the TGI in experiment [1], in experiment [2], in experiment [3], in [4], in experiment [5] and in experiment [6] was greater than 100 µM each time. The TGI in experiment [7], in experiment [8], in experiment [9] and in experiment [10] was greater than 100 µM throughout.

These data come from PubChem BioAssay (NCI).
